{
  "source": "patent US20040235801A1",
  "about": "“Therapy for stroke” (priority 2001, published 2004)",
  "test_system": "C57BL/6 mice",
  "experiment": "Size of infarction after 90 minutes MCA occlusion (tetrazolium red)",
  "type": "in vivo, mouse",
  "details": "24 hours after 90 min MCAO; treatment 2.5 hours after MCAO, i.p.; % of contralateral side",
  "description": "Adult (3-5 months old) male C57BL/6 mice were obtained from Charles River Inc. (Saint-Constant, Quebec, Canada). All experimental procedures were approved by the MUHC animal care committee according to the guidelines of the Canadian Council for Animal Care. All animals were allowed free access to water before and after surgery.\nUnilateral focal cerebral ischemia was induced by occlusion of the medial cerebral artery (MCA) in the left cerebral hemisphere during 1.5 hours. The MCA occlusions in mice is carried out on ˜30 C57BI/6 mice weighing 20-25 g from an adaptation of a method previously described in rats (Beaulieu, J. M., Kriz, J. and Julien, J. P. ,2002, Brain.Res. 946, 153-161). The animals were anesthetized by administration of ketamine/xylazine mg/kg i.m. To avoid hypothermia, the mouse body temperature was maintained at 37° C. with an infrared heating lamp and warm pad. […]\nThe area of infarct was estimated in the minimum of animals (5-7 mice) from each experimental group. […] The area of infarct was estimated according to the tetrazolium red staining, calculated in arbitrary units pixels and expressed as a percentage of a total control area, the contralateral non-stroked side of the brain. […] The infarct volume was calculated by summing up the infarct area in multiple slices. […]",
  "data": [
    {"smiles": "CN(C)c1ccc(O)c2c1C[C@H]1C[C@H]3[C@H](N(C)C)C(O)=C(C(N)=O)C(=O)[C@@]3(O)C(O)=C1C2=O", "note": "[Minocycline, minocycline]", "values": [
      {"measurement": "% of ischemic area", "result": 38.4, "unit": "%"}
    ]}
  ]
}
